Results from ChEMBL document CHEMBL1777687, “Structure stability/activity relationships of sulfone stabilized N,N-dichloroamines” (Bioorg Med Chem Lett, 2011).
Values after ≈ are worked out from the molar mass of the structure shown.

Columns and labels:
Escherichia coli = experiment: Bactericidal activity against Escherichia coli ATCC 25922 after 1 hr by CLSI M26-A method; assay type: functional; details: ATCC 25922, 1 h
Staphylococcus aureus = experiment: Bactericidal activity against Staphylococcus aureus ATCC 29213 after 1 hr by CLSI M26-A method; assay type: functional; details: ATCC 29213, 1 h
Candida albicans = experiment: Fungicidal activity against Candida albicans ATCC 10231 after 1 hr by CLSI M26-A method; assay type: functional; details: ATCC 10231, 1 h
[1] = Chemical stability of the compound assessed as half life in acetate buffer at pH 4; assay type: physicochemical
[2] = Chemical stability of the compound assessed as half life in phosphate buffer at pH 7; assay type: physicochemical
[3] = Chemical stability of the compound assessed as half life in 0.6% borate buffer at pH 7; assay type: physicochemical

SMILES	half-life [1] [days]	half-life [2] [days]	half-life [3] [days]	MBC (Escherichia coli) [µg/mL]	MBC (Staphylococcus aureus) [µg/mL]	MFC (Candida albicans) [µg/mL]
CC(C)(CCS(=O)(=O)CCS(=O)(=O)O)N(Cl)Cl	> 342	> 342	–	8 (≈ 24.4 µM)	2 (≈ 6.09 µM)	16 (≈ 48.7 µM)
CC(C)(CCS(=O)(=O)CCS(=O)(=O)CCS(=O)(=O)O)N(Cl)Cl	> 73	–	14	2 (≈ 4.76 µM)	4 (≈ 9.52 µM)	32 (≈ 76.1 µM)
CC(C)(C[N+](C)(C)C)N(Cl)Cl.[Cl-]	> 325	> 396	–	16	8	128
CC(C)(CCCS(=O)(=O)CCS(=O)(=O)O)N(Cl)Cl	45	–	45	8 (≈ 23.4 µM)	2 (≈ 5.84 µM)	128 (≈ 374 µM)
CC(C)(CS(=O)(=O)CCS(=O)(=O)O)N(Cl)Cl	> 93	1	–	4 (≈ 12.7 µM)	8 (≈ 25.5 µM)	64 (≈ 204 µM)
CC(C)(CCS(=O)(=O)CCCCCCCCS(=O)(=O)O)N(Cl)Cl	182	–	70	2 (≈ 4.85 µM)	4 (≈ 9.7 µM)	8 (≈ 19.4 µM)
CC(C)(CS(=O)(=O)[O-])N(Cl)Cl.[Na+]	> 730	> 300	–	2	2	32

Now from value to compound, other results behind:

half-life [1] [days]	half-life [2] [days]	half-life [3] [days]	SMILES	MBC (Escherichia coli) [µg/mL]	MBC (Staphylococcus aureus) [µg/mL]	MFC (Candida albicans) [µg/mL]
> 112	85	–	CC(C)(CCS(=O)(=O)CCCS(=O)(=O)O)N(Cl)Cl	2 (≈ 5.84 µM)	2 (≈ 5.84 µM)	1020 (≈ 2990 µM)
127	74	–	CC(C)(CCS(=O)(=O)CCCCCCCC[N+](C)(C)C)N(Cl)Cl.[Cl-]	8	8	32
80	56	–	CC(C)(CCC[N+](C)(C)C)N(Cl)Cl.[Cl-]	8	2	256
> 281	> 210	–	CC(C)(CC[N+](C)(C)C)N(Cl)Cl.[Cl-]	2	2	64
6	–	–	CC(C)(CCS(=O)(=O)CC[N+](C)(C)C)N(Cl)Cl.[Cl-]	8	2	32
> 160	–	70	CC(C)(CCS(=O)(=O)CCC[N+](C)(C)C)N(Cl)Cl.[Cl-]	8	2	32
